Data from patent publication US20190369111A1, “MOLECULAR KINETICS EVALUATION METHOD AND SCREENING METHOD” (Tokyo University of Science Foundation, priority 2016, published 2019).
Non-standard residues stand in square brackets, D forms with d. Residues, ends and D or L forms follow the SMILES beside them. Nle = CCCC[C@H](N)C(=O)O

Assays:
[1] = target: T1, catalytic subunit β1 of a proteasome (caspase-like activity) (Homo sapiens, UniProt P28072); settings: reported by Kaiser, M. et al., 2004; patent's result consistent; cited from earlier work
T1 construct: purchased Bioscience

endogenous DHFR protein = target: T2, endogenous DHFR protein (Homo sapiens, UniProt P00374); assay: Degradation of endogenous DHFR protein in HeLa cells, Western blot analysis; format: cell-based; settings: 50 μM, 100 μM or 200 μM, 16 hours after addition
T2 construct: degradation (knockdown) of an endogenous DHFR protein in HeLa cells; endogenous in cells; host or cells: HeLa cells
T2 sequence (P00374 1-187): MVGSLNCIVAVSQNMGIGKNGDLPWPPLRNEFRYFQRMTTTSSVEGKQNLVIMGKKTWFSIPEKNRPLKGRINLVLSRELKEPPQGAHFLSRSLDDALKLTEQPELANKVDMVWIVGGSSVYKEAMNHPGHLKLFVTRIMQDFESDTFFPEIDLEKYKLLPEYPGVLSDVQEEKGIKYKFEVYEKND

DHFR protein = target: T3, DHFR protein (Mus musculus, UniProt P00375); assay: Degradation of DHFR protein in each tissue of mouse after administration, Western blot analysis; format: in vivo
T3 construct: administered intraperitoneally to C57BL/6J wild-type mice; from tissue; host or cells: C57BL/6J wild-type mice: liver, kidneys, heart
T3 sequence (P00375 1-187): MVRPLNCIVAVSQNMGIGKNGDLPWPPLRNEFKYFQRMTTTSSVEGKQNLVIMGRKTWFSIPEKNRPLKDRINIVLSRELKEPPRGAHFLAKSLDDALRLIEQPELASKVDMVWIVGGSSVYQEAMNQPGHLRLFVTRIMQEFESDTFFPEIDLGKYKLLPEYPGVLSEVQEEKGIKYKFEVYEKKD
Method: MTX-CANDDY_MLN was dissolved in DMSO immediately before administration, and then dissolved in corn oil (Code No. 25606-55, Nacalai Tesque) so that the concentration of DMSO was 10 vol %, and then a dose of 50 mg/kg body weight or 100 mg/kg body weight was administered intraperitoneally to C57BL/6J wild-type mice (7 weeks old, male) (CLEA Japan, Inc.) (n=3). […] As a control, an injection carrier (corn oil containing 10 vol % DMSO) was used. The mice were kept under an environment of ad libitum access to food and water. The mice were dissected under deep anesthesia by Somnopentyl (Kyoritsu Seiyaku Corporation) 24 hours after administration. Abdominal section was performed, and then the liver, kidneys, and heart were sequentially extracted and flash frozen in liquid nitrogen. Each tissue frozen in liquid nitrogen was stored in a deep freezer at −80° C.
The frozen tissues (0.04 g) were each frozen and triturated, and then 980 μL of 1×TKM tissue lysis buffer (50 mM triethanolamine (pH 7.8), 50 mM KCl, 5 mM MgCl2, 0.25 M sucrose, 1 mM PMSF, protein inhibitors cocktail-EDTA free (Code No. 03969-21, Nacalai Tesque, Inc.), 1 mM DTT, and 5 μL/mL recombinant RNase inhibitor (40 U/μL, Cat No. 2313A, Lot No. K8402DA, TAKARA Bio)) were added, and dissolved by rotation for 15 minutes (1 rpm, 25° C.). Then, the resultant product was subjected to centrifugation (at 3000 rpm×15 minutes, 4° C.), and the supernatants (each tissue extract) were collected. The concentration of proteins in each tissue extract was quantified with a spectrophotometer using each tissue extract that had been diluted 20 times using DEPC-treated water.
Each tissue extract collected was subjected to Western blot analysis. An SDS-PAGE gel was prepared using TGX™ FastCast™ Acrylamide Kit, 12% (Bio-Rad). Electrophoresis samples were prepared in a 6×SDS-PAGE sample buffer (62.5 mM Tris-HCl pH 6.8, 2% SDS, 5% 2-mercaptoethanol, 10% glycerol, 0.25% BPB), and placed on a heat block at 95° C. for 5 minutes. The electrophoresis samples prepared were applied at 50 μg/well for detection of GAPDH, and applied at 100 μg/well for other detection. Electrophoresis was performed at 160 V for 60 minutes (electrophoresis buffer; 195 mM glycine, 25 mM Tris).
After electrophoresis, proteins were transferred to a PVDF membrane (Immobion™-P, Millipore) under conditions of 100 V and 1.5 hours using a tank-type blotting device and a transfer buffer (25 mM Tris-HCl, 195 mM glycine, 0.01% SDS, 15% methanol). […] Subsequently, the membrane was treated with a chemiluminescence reagent Immobilon™ Western (Millipore), and then chemiluminescence was detected using a lumino image analyzer LAS-3000 (FUJIFILM Corporation). Detected bands were quantified with an image processing software ImageJ (NIH).

[2] = target: T1, catalytic subunit β1 of a proteasome (caspase-like activity); assay: 20S proteasome inhibitory activity, catalytic subunit β1; format: biochemical; settings: AMC fluorescence substrate
Method: (§1) For evaluation, 20S Proteasome StressXpress™ Assay Kit Gold (Bioscience) was used. AMC was measured by using Multi-Detection Microplate Reader (Synergy HT, BIO-TEK). The AMC was produced by cleaving the C-terminus of an AMC-binding proteasome fluorescence substrate specific to β subunits of a 20S proteasome, including β5 (chymotrypsin-like activity), β2 (trypsin-like activity), and β1 (caspase-like activity). The measuring wavelengths were 360 nm for excitation light (Ex.), and 460 nm for fluorescence (Em.).
(§2) In Reference Example 11, as in Reference Example 4, a proteasome inhibitory activity of TMP-CANDDY_ALLN and an affinity of TMP-CANDDY_ALLN with a proteasome were evaluated.

[3] = target: T4, catalytic subunit β2 of the proteasome (trypsin-like activity) (Homo sapiens, UniProt Q99436); assay: 20S proteasome inhibitory activity, catalytic subunit β2; format: biochemical; settings: AMC fluorescence substrate
T4 construct: purchased Bioscience
Method: as §1, §2

[4] = target: T5, catalytic subunit β5 of the proteasome (chymotrypsin-like activity) (Homo sapiens, UniProt P28074); assay: 20S proteasome inhibitory activity, catalytic subunit β5; format: biochemical; settings: AMC fluorescence substrate
T5 construct: purchased Bioscience
Method: as §1, §2

20S proteasome = target: T6, 20S proteasome (Homo sapiens, UniProt P28072+P28074+Q99436); assay: Affinity with a proteasome evaluated from 20S proteasome assay kit; format: biochemical; settings: suggested from concentration dependent inhibitory activity against β1, β2, β5
T6 construct: purchased Bioscience
Method: In Reference Example 2, the proteasome inhibitory activity of TMP-CANDDY_DMT and the affinity of TMP-CANDDY_DMT with a proteasome were evaluated. As a positive control, MG-132 as a proteasome inhibitor was used.
as §1, §2

ecDHFR protein [5] = target: T7, ecDHFR protein (Escherichia coli, UniProt P0ABQ4); format: cell-based, human; settings: HeLa cells, 24 hours after addition, vs control (DMSO)
T7 construct: expressed in transfected cells; host or cells: HeLa cells, transient transfection with pMIR-DsRed-IRES-ecDHFR-HA-GFP

ecDHFR protein [6] = target: T7, ecDHFR protein; format: cell-based, human; settings: HeLa cells

CCCC[C@@H](C=O)NC(=O)[C@H](CC(C)C)NC(=O)[C@H](CC(C)C)NC(C)=O [ALLN, Calpain inhibitor I] (Ac-Leu-Leu-[Nle]-aldehyde)
inhibition of β1 (caspase-like activity) [1]: not inhibited

CC(C)C[C@H](NC(=O)CNC(=O)c1cc(Cl)ccc1Cl)C(=O)NCCCCCCNC(=O)CC[C@H](NC(=O)c1ccc(N(C)Cc2cnc3nc(N)nc(N)c3n2)cc1)C(=O)O [MTX-CANDDY_MLN]
amount of endogenous DHFR protein (endogenous DHFR protein): decreased in a concentration dependent manner | amount of DHFR protein in heart (DHFR protein; intraperitoneal 50 or 100 mg/kg body weight, 24 hours after administration, heart): reduction in the amount of the DHFR protein was not found | amount of DHFR protein in kidneys (DHFR protein; intraperitoneal 50 or 100 mg/kg body weight, 24 hours after administration, kidneys): reduced in a concentration dependent manner | amount of DHFR protein in liver (DHFR protein; intraperitoneal 50 or 100 mg/kg body weight, 24 hours after administration, liver): reduced in a concentration dependent manner | transfer property to tissues (molecular kinetics) (DHFR protein; suggested from DHFR degradation in tissues): showed a higher transfer property in the liver and kidneys, as compared with the heart

COc1nc(NCCCCCCNC(=O)COc2c(OC)cc(Cc3cnc(N)nc3N)cc2OC)nc(OC)n1 [TMP-CANDDY_DMT]
proteasome inhibitory activity against β1 (caspase-like activity) [2]: significantly lower proteasome inhibitory activity as compared with MG-132 | proteasome inhibitory activity against β2 (trypsin-like activity) [3]: significantly lower proteasome inhibitory activity as compared with MG-132 | proteasome inhibitory activity against β5 (chymotrypsin-like activity) [4]: significantly lower proteasome inhibitory activity as compared with MG-132 | affinity with a proteasome (20S proteasome): moderate affinity with a proteasome | degradation (knockdown) of ecDHFR protein (shift of GFP/DsRed ratio graph) (ecDHFR protein [5]): degradation of the ecDHFR protein was induced | amount of ecDHFR protein (ecDHFR protein [6]; 24 hours after addition, cycloheximide 50 μg/mL added after 12 hours): the amount of the ecDHFR protein was reduced | degradation of ecDHFR protein when bortezomib is added together (ecDHFR protein [6]; both TMP-CANDDY_DMT and bortezomib added, compared with TMP-CANDDY_DMT alone): degradation of the ecDHFR protein was inhibited
